One test concerns the target purified rMpAOX (Moniliophthora perniciosa, UniProt A8QJP8). As to the kind of experiment: Purified (detergent-solubilised) rMpAOX, Q1H2 oxidation. In kind it is biochemical. The procedure:
The E. coli membrane fraction was resuspended with 50 mM Tris-HCl pH 7.5, 20% glycerol, 200 mM MgSO4 and 1% Fos-Choline-12 (FC-12) instead of MOPS buffer. The sample was left under gentle rocking for 1 h at 4 °C, after which it was centrifuged at 200,000 rcf for 30 min. […] T. Elthon, Nebraska, USA. Protein content was estimated through the Bradford method[63] and bovine serum albumin as standard.
(§1) Respiration rates were recorded before and after the addition of putative AOX activators, such as 5′-ADP, 5′-AMP, 5′-GDP, 5′-GMP, glyoxylate, oxaloacetate, pyruvate or succinate (1 mM each unless stated otherwise). […] Data were acquired with the Multiskan FC Microplate Photometer (ThermoFisher). […] Absorbance readings were taken periodically and a blank reactions (substrate without enzyme) were included in every assay and were used to determine and subtract the autoxidation rate (background). Proteoliposomes were assayed as described for the E. coli membrane fraction except that no KCN was included and 0.5 µL of the prep (~50 ng rMpAOX) were added into the reaction. When tested, inhibitors were preincubated with the enzyme in reaction buffer for 2–5 min before starting the reaction by the addition of substrate. The path length (i.e., the height of the reaction medium inside the well) was calculated based on the reaction volume and the well cross-section area informed by the supplier. GraphPad Prism 7.0 (GraphPad Software Inc.) was used for function fitting.

For test [1], the system named is TAO incorporated into PLs. Further details: method as in PMID 29133414. The settings on record: cited from earlier work.
The subject of the next test is solubilised TAO. Further details: method as in PMID 29107420. The settings on record: cited from earlier work.
Test [2] has as its target rMpAOX incorporated into proteoliposomes (Moniliophthora perniciosa, UniProt A8QJP8). As to the kind of experiment: rMpAOX incorporated into proteoliposomes with Q10 and NDH-2 (NADH oxidation). In kind it is biochemical. The procedure: Proteoliposomes (PL) were prepared as previously described[44],[45], except that NDH-2 was used instead of complex I and 0.5% DDM was used instead of OG. […] For kinetic studies, PLs were prepared with 50 µg rMpAOX and no NDH-2—in this case, pure NDH-2 was added directly into the enzymatic reaction mixture at a saturating concentration. Briefly, lipids and Q10 stocks in chloroform were mixed in a glass vial and the chloroform dried under a nitrogen stream. The lipids were hydrated and extruded through a 100 nm NanoSizer MINI Liposome Extruder (T&T Scientific) followed by the addition of protein. After treatment with the Bio-Beads SM-2 Resin (Bio-Rad), proteolipososmes were harvested by ultracentrifugation and resuspended in 150 µL of buffer. Enzymatic assays were performed on the same day.
as §1

The next test deals with membrane-bound rMpAOX (Moniliophthora perniciosa, UniProt A8QJP8). As to the kind of experiment: Dose-response assay of inhibitors with membrane-bound, GMP-activated rMpAOX (NADH oxidation). In kind it is biochemical. The procedure: E. coli membrane preparation was performed as described with minor modifications. […] The cells were disrupted using two passes at […] through a pre-cooled Constant cell disruption system (Constant Systems Ltd). The lysate was centrifuged for 15 min at 16,000 rcf, and the pelleted unbroken cells and large cell debris were discarded. The supernatant was centrifuged for 90 min at 200,000 rcf to collect the fragmented membranes.
as §1

The next test deals with membrane-bound TAO. The arrangement: method as in PMID 23180806. The settings on record: cited from earlier work.
In a further test the test system is M. perniciosa. Further details: method as in PMID 22443281, PMID 30350447. The settings on record: cited from earlier work.

“And” between values parts separate entries of the source, which are not always exact repeats. Identical values can stand only once.

purified rMpAOX, sequence (A8QJP8 entry or part of it): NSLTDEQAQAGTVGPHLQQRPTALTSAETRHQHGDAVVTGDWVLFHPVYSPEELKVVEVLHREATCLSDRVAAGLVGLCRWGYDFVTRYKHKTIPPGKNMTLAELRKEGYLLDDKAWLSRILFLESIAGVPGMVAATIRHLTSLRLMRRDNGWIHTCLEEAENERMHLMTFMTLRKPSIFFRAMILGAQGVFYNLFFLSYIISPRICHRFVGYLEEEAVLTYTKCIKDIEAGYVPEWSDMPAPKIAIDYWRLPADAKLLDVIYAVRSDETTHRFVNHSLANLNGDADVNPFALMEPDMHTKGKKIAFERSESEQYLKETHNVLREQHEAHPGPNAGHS
membrane-bound rMpAOX, sequence (A8QJP8 entry or part of it): as above
rMpAOX incorporated into proteoliposomes, sequence (A8QJP8 entry or part of it): as above

For the compound `CC(C)=CCC/C(C)=C/Cc1c(O)c(Cl)c(C)c(C=O)c1O` [CB, colletochlorin B], the Ki on purified rMpAOX (Morrison equation for tight-binders, read-out: KIapp) came to 13.9 nM. For the same compound, the activity at 2.5 pM was found to be 99.5% at purified rMpAOX ([I], M 2.5e-12, read-out: Dose-response assay with CB, (Fig3d)) and 100% in test [2] (log[CB], M -11.6021 (Fig4b), read-out: Fractional velocity, %). The activity at 10 pM at purified rMpAOX ([I], M 1e-11, read-out: Dose-response assay with CB, Fig3d) worked out at 98%. The activity at 25 pM on purified rMpAOX ([I], M 2.5e-11, read-out: Dose-response assay with CB, (Fig3d)) amounted to 99%; in test [2] (log[CB], M -10.6021 (Fig4b), read-out: Fractional velocity, %), 98.7%; on membrane-bound rMpAOX (log[I], M -10.6021 (Fig2b), read-out: Fractional velocity, %), 92%. The activity at 0.0001 µM at purified rMpAOX ([I], M 1e-10, read-out: Dose-response assay with CB, Fig3d) was 100%. Also, the activity at 0.00025 µM on purified rMpAOX ([I], M 2.5e-10, read-out: Dose-response assay with CB, (Fig3d)) stood at 99.7%; in test [2] (log[CB], M -9.60206 (Fig4b), read-out: Fractional velocity, %) it was 99.3%; on membrane-bound rMpAOX (log[I], M -9.60206 (Fig2b), read-out: Fractional velocity, %) it was 96.2%. Also, the activity at 0.001 µM on purified rMpAOX ([I], M 1e-9, read-out: Dose-response assay with CB, Fig3d) came out at 96.8%. Besides, the activity at 0.0025 µM was 94.6% on purified rMpAOX ([I], M 2.5e-9, read-out: Dose-response assay with CB, (Fig3d)) and 74.5% in test [2] (log[CB], M -8.60206 (Fig4b), read-out: Fractional velocity, %). Moreover, the activity at 0.01 µM at purified rMpAOX ([I], M 1e-8, read-out: Dose-response assay with CB, Fig3d) is 79.3%. Besides, the activity at 0.025 µM was determined as 69.2% at purified rMpAOX ([I], M 2.5e-8, read-out: Dose-response assay with CB, (Fig3d)) and 46.1% in test [2] (log[CB], M -7.60206 (Fig4b), read-out: Fractional velocity, %). For the same compound, the activity at 0.1 µM on purified rMpAOX ([I], M 1e-7, read-out: Dose-response assay with CB, Fig3d) came to 36.9%. In addition, the activity at 0.25 µM stood at 22.7% at purified rMpAOX ([I], M 2.5e-7, read-out: Dose-response assay with CB, (Fig3d)) and 11.1% in test [2] (log[CB], M -6.60206 (Fig4b), read-out: Fractional velocity, %). In addition, the activity at 1 µM at purified rMpAOX ([I], M 1e-6, read-out: Dose-response assay with CB, Fig3d) stood at 8.98%. The activity at 2.5 µM came to 10.4% at purified rMpAOX ([I], M 2.5e-6, read-out: Dose-response assay with CB, (Fig3d)) and 3.2% in test [2] (log[CB], M -5.60206 (Fig4b), read-out: Fractional velocity, %). The activity at 10 µM at purified rMpAOX ([I], M 1e-5, read-out: Dose-response assay with CB, Fig3d) is 2.99%. The activity at 25 µM on purified rMpAOX ([I], M 2.5e-5, read-out: Dose-response assay with CB, (Fig3d)) came out at 0%; in test [2] (log[CB], M -4.60206 (Fig4b), read-out: Fractional velocity, %) it was 2.86%. The activity at 100 µM on purified rMpAOX ([I], M 0.0001, read-out: Dose-response assay with CB, Fig3d) turned out to be 3.34%. Besides, on purified rMpAOX (enzyme 49.1 nM), the “CB-to-rMpAOX ratio at the IC50 concentration” value is on record as 1.2. Besides, the IC50 on purified rMpAOX (purified rMpAOX, enzyme 49.1 nM) was 59.3 nM; in test [2] (proteoliposomes with rMpAOX, Q10 and NDH-2), 19.5 nM; on membrane-bound rMpAOX (membrane-bound, GMP-activated rMpAOX, read-out: IC50), 14.8 nM; in the test with membrane-bound TAO, 0.2 nM. The “CB-to-enzyme ratio at the IC50 concentration” value in test [1] was 1.4; with solubilised TAO it was 1.3. The “Fractional velocity, %” value in test [2] (log[CB], M -4.60206 (Fig4b), 25 µM) is 2.151%; in test [2] (log[CB], M -5.60206 (Fig4b), 2.5 µM) it was 4.07%; in test [2] (log[CB], M -6.60206 (Fig4b), 0.25 µM), 11.8798%; in test [2] (log[CB], M -7.60206 (Fig4b), 0.025 µM) it was 47.093%; in test [2] (log[CB], M -8.60206 (Fig4b), 0.0025 µM) it was 86.8217%; in test [2] (log[CB], M -9.60206 (Fig4b), 0.00025 µM), 97.2868%. Moreover, the “Fractional velocity, %” value was 98.4496% in test [2] (log[CB], M -10.6021 (Fig4b), 25 pM); 2.536% and 2.662% and 8.437% on membrane-bound rMpAOX (log[I], M -4.60206 (Fig2b), 25 µM); 2.977% and 3.203% and 8.094% on membrane-bound rMpAOX (log[I], M -5.60206 (Fig2b), 2.5 µM); 4.262% and 7.7642% and 10.3237% at membrane-bound rMpAOX (log[I], M -6.60206 (Fig2b), 0.25 µM); 76.0268% and 98.1726% and 76.3221% on membrane-bound rMpAOX (log[I], M -8.60206 (Fig2b), 0.0025 µM); 96.6921% and 90.9449% on membrane-bound rMpAOX (log[I], M -9.60206 (Fig2b), 0.00025 µM). In addition, at membrane-bound rMpAOX (log[I], M -10.6021 (Fig2b), 25 pM), the “Fractional velocity, %” value is 95.8052% and 91.68%.
With `CCCOC(=O)c1cc(O)c(O)c(O)c1` [n-propyl gallate], the “Concentrations that inhibit M. perniciosa growth” value in the test with M. perniciosa was “millimolar concentrations”.

One may read the IC50 as the concentration needed to halve the response being measured.

The values are drawn from publication PMC7248098, “Biochemical characterization and inhibition of the alternative oxidase enzyme from the fungal phytopathogen Moniliophthora perniciosa” (Communications Biology, 2020).
